This note sets out measurements from patent publication US20190225650A1, “PEPTIDOMIMETIC MACROCYCLES AND USE THEREOF IN REGULATING HIF1ALPHA” (AILERON THERAPEUTICS, INC., priority 2013, published 2019).

Bridge positions count the residues as written; N and C are the ends. Square brackets hold non-standard residues; d marks the D form. Peptide text beside a SMILES is read from it. R8 = C=CCCCCCC[C@@](C)(N)C(=O)O; S5 = C=CCCC[C@](C)(N)C(=O)O; Nle = CCCC[C@H](N)C(=O)O

A word on the IC50: it is the point on the concentration scale where inhibition reaches its midpoint. The EC50 is the concentration giving half of the maximal effect.

Assay [1] has as its target T1, flag-tagged HIF1α (AA 786-826) / His6-tagged p300 (AA 323-423) complex (Homo sapiens, UniProt Q09472).
T1 construct: His6-tagged p300 (AA 323-423); made in house; host or cells: E. coli (pETDuet vector)
Kind of assay: HIF1α p300 displacement assay (TR FRET, +CHAPS). Conditions: read-out: IC50 (nM) (HIF1α_p300 Displacement + CHAPS). The class given is binding. The procedure, abridged:
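In this TR-FRET displacement format, peptides compete HIF1α C-terminal transactivation domain off p300-CH. They were preincubated 1 h at room temperature with 300 nM complex in HEPES pH 7.4/NaCl buffer with 7.5 mM CHAPS and 1 mM DTT. Anti-His-D2 (4 nM) and anti-Flag-K (0.5 μM) followed for 2 h, and a one-site fit of the fluorescence ratio gave IC50.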
Background: In TR-FRET formats the signal depends on donor and acceptor labels being close together.

Assay [2] relates to HRE-bla ME-180 cells. Kind of assay: Reporter gene assay (HRE-bla ME-180 HIF reporter, GeneBLAzer). Format: cell-based, human. Conditions: for EC50: 24 hour normoxia. The procedure, abridged: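 A FRET β-lactamase readout of HIF transcription was used. After compound treatment in 0.3% DMSO/media under normoxic conditions, 20 μl of 6× LiveBLAzer-FRET B/G (CCF4-AM) substrate was added. Plates sat 3 hr at room temperature in the dark and were read at 409 Ex/460Em and 409Ex/530Em on a Synergy 2. Inhibition was compared against DMSO vehicle controls, with chetomin as positive control.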
A general note: Reporter assays use an easily measured gene product as a stand-in for the process of interest.

Assay [3] has as its system HRE-bla ME-180 cells. Kind of assay: Cell proliferation assay (viability, MTT, 1% FBS). The class given is cell-based, human. On the procedure:
The human cervical cell line HRE-Bla ME-180 was obtained from Invitrogen. 2×10^4 ME-180 cells were plated in 96-well plates (costar) in Opti-MEM plus 1% FBS (Invitrogen). After 4 hr, cells were pretreated with chetomin, peptide or 0.5% DMSO (final concentration in media) vehicle control for 16 hr under normoxia (21% O2); then incubation continued under normoxia or hypoxia (1% O2) using a hypoxia incubator (Thermo Forma model). Viable cell numbers were quantified using CellTiter 96 Non-Radioactive Cell Proliferation kit (Promega, G4100). The results are presented in the column “Viability 1% FBS AVG (MTT V3-24 hr Normoxia) (μM)” of Table 6.

As to `CCCC[C@H](NC(=O)[C@H](CCC(=O)O)NC(=O)[C@]1(C)CCCC=CCCCCCC[C@@](C)(NC(=O)[C@H](CCC(=O)O)NC(=O)[C@H](CC(=O)O)NC(=O)[C@@H](NC(=O)[C@H](CC(N)=O)NC(=O)[C@@H](NC(=O)[C@]2(C)CCCC=CCCCCCC[C@@](C)(NC(=O)[C@H](CCC(=O)O)NC(=O)CNC(=O)[C@H](CCC(N)=O)NC(=O)[C@H](CC(C)C)NC(=O)[C@H](CC(C)C)NC(C)=O)C(=O)N[C@@H](CC(C)C)C(=O)N[C@@H](CC(C)C)C(=O)N[C@@H](CCCNC(=N)N)C(=O)N[C@@H](C)C(=O)N[C@@H](CC(C)C)C(=O)N[C@@H](CC(=O)O)C(=O)N2)C(C)C)[C@@H](C)CC)C(=O)N[C@@H](C(C)C)C(=O)N[C@@H](CC(C)C)C(=O)N[C@@H](CCCC)C(=O)N[C@@H](CO)C(=O)N[C@@H](CC(C)C)C(=O)N[C@@H](C(C)C)C(=O)N1)C(=O)NCC(N)=O` [SP-313] (Ac-LLQGE[R8]LLRALD[S5]VNIDE[R8]VL[Nle]SLV[S5]E[Nle]G-NH2; staple 6-13, 19-26), the IC50 in assay [1] was in the range of 200 to 400 nM. Moreover, in assay [2], the “18 h Avg % max inhibition at top conc (HIF Rptr-24 hrs normoxia) (μM)” value (shortened to “18 h Avg % max inhibition at top conc”) is “+ (<10: +)” and the EC50 is more than 30 µM. Besides, in assay [3], the “Viability 1% FBS AVG (MTT V3-24 hr Normoxia) (μM)” value (“Viability 1% FBS AVG” for short) is on record as “++++ (≥30: ++++)”.

`CC[C@H](C)[C@H](NC(=O)[C@H](Cc1ccccc1)NC(C)=O)C(=O)N[C@@H](CC(N)=O)C(=O)N[C@@H](CCC(=O)O)C(=O)N[C@@H](CCCCN)C(=O)N[C@H](C(=O)N[C@@H](CC(C)C)C(=O)N[C@@H](CCSC)C(=O)N[C@@]1(C)CCCC=CCCC[C@@](C)(C(=O)N[C@@H](CCSC)C(=O)N[C@@H](C)C(=O)N[C@@H](CC(C)C)C(=O)N[C@@H](CO)C(=O)N[C@@H](CCCNC(=N)N)C(N)=O)NC(=O)[C@H]([C@@H](C)CC)NC(=O)[C@H](C(C)C)NC(=O)[C@H](CC(C)C)NC1=O)C(C)C` [SP-288] (Ac-FINEKVLM[S5]LVI[S5]MALSR-NH2; staple 9-13): the IC50 in assay [1] was more than 700 nM. Also, in assay [2], the “18 h Avg % max inhibition at top conc” value is on record as “+ (<10: +)” and the concentration for a half-maximal effect (EC50) was more than 30 µM. Besides, in assay [3], the “Viability 1% FBS AVG” value is “++++ (≥30: ++++)”.

With `CCCC[C@H](NC(=O)[C@H](CCC(=O)O)NC(=O)[C@@H](NC(=O)[C@@H](NC(=O)[C@H](CC(C)C)NC(=O)[C@]1(C)CCCC=CCCC[C@](C)(NC(=O)[C@H](CCC(=O)O)NC(=O)[C@H](CC(=O)O)NC(=O)[C@@H](NC(=O)[C@H](Cc2ccccc2)NC(C)=O)[C@@H](C)O)C(=O)N[C@@H](C(C)C)C(=O)N[C@@H](CC(C)C)C(=O)N[C@@H](CCCC)C(=O)N1)C(C)C)[C@@H](C)CC)C(=O)N[C@@H](C)C(=O)N[C@@H](CC(C)C)C(N)=O` [SP-153] (Ac-FTDE[S5]VL[Nle][S5]LVIE[Nle]AL-NH2; staple 5-9), the IC50 in assay [1] lay within 400 to 700 nM. Further, in assay [2], the “18 h Avg % max inhibition at top conc” value is listed as “+ (<10: +)” and the concentration giving a half-maximal response (EC50) is more than 30 µM. The “Viability 1% FBS AVG” value in assay [3] is given as “++++ (≥30: ++++)”.

For `CC[C@H](C)[C@H](NC(=O)[C@H](CCCNC(=N)N)NC(=O)[C@H](CC(=O)O)NC(=O)[C@H](CC(C)C)NC(=O)[C@H](C)NC(=O)[C@H](CCSC)NC(=O)[C@]1(C)CCCC=CCCC[C@](C)(NC(=O)[C@H](CCSC)NC(=O)[C@H](CC(C)C)NC(=O)[C@@H](NC(=O)[C@H](CCCCN)NC(=O)[C@H](CCC(=O)O)NC(=O)[C@H](CC(N)=O)NC(=O)[C@@H](NC(=O)[C@H](Cc2ccccc2)NC(C)=O)[C@@H](C)CC)C(C)C)C(=O)N[C@@H](CC(C)C)C(=O)N[C@@H](C(C)C)C(=O)N[C@@H]([C@@H](C)CC)C(=O)N1)C(N)=O` [SP-285] (Ac-FINEKVLM[S5]LVI[S5]MALDRI-NH2; staple 9-13), in assay [1], the half-inhibitory concentration (IC50) is more than 700 nM. In addition, in assay [2], the “18 h Avg % max inhibition at top conc” value was “+++ (≤25 but <50: +++)” and the EC50 was more than 30 µM. In addition, the “Viability 1% FBS AVG” value in assay [3] is given as “++++ (≥30: ++++)”.

Take `CC[C@H](C)[C@H](NC(=O)[C@H](Cc1ccccc1)NC(C)=O)C(=O)N[C@@H](CC(=O)O)C(=O)N[C@@H](CCC(=O)O)C(=O)N[C@@H](CCC(=O)O)C(=O)N[C@H](C(=O)N[C@@H](CC(C)C)C(=O)N[C@@H](CCSC)C(=O)N[C@@]1(C)CCCC=CCCC[C@@](C)(C(=O)N[C@@H](CCSC)C(=O)N[C@@H](C)C(=O)N[C@@H](CC(C)C)C(=O)N[C@@H](CC(=O)O)C(=O)N[C@@H](CCCNC(=N)N)C(N)=O)NC(=O)[C@H]([C@@H](C)CC)NC(=O)[C@H](C(C)C)NC(=O)[C@H](CC(C)C)NC1=O)C(C)C` [SP-281] (Ac-FIDEEVLM[S5]LVI[S5]MALDR-NH2; staple 9-13): the concentration for half-maximal inhibition (IC50) in assay [1] lay within 400 to 700 nM. Further, in assay [2], the “18 h Avg % max inhibition at top conc” value is on record as “++++ (≥50: ++++)” and the EC50 was 5 to 15 µM. Also, the “Viability 1% FBS AVG” value in assay [3] is “++++ (≥30: ++++)”.

Turning to `CCCC[C@@H]1NC(=O)[C@H](CC(C)C)NC(=O)[C@H](C(C)C)NC(=O)[C@@](C)(NC(=O)[C@H](CCC(=O)O)NC(=O)[C@H](CC(=O)O)NC(=O)[C@@H](NC(=O)[C@H](Cc2ccccc2)NC(C)=O)[C@@H](C)CC)CCCC=CCCC[C@@](C)(C(=O)N[C@@H](CC(C)C)C(=O)N[C@H](C(=O)N[C@H](C(=O)N[C@@H](CCC(=O)O)C(=O)N[C@@H](C)C(=O)N[C@@H](C)C(=O)N[C@@H](CC(C)C)C(N)=O)[C@@H](C)CC)C(C)C)NC1=O` [SP-145] (Ac-FIDE[S5]VL[Nle][S5]LVIEAAL-NH2; staple 5-9), the IC50 in assay [1] was in the range of 200 to 400 nM. Besides, the “Viability 1% FBS AVG” value in assay [3] is listed as “++++ (≥30: ++++)”.

Turning to `CCCC[C@H](NC(=O)[C@H](CCC(=O)O)NC(=O)[C@@H](NC(=O)[C@@H](NC(=O)[C@H](CC(C)C)NC(=O)[C@]1(C)CCCC=CCCC[C@](C)(NC(=O)[C@H](CCC(=O)O)NC(=O)[C@H](CC(=O)O)NC(=O)[C@@H](NC(=O)[C@H](CC(N)=O)NC(=O)[C@@H](NC(=O)[C@H](CCC(N)=O)NC(=O)[C@H](CC(=O)O)NC(=O)[C@H](CC(C)C)NC(=O)[C@]2(C)CCCC=CCCC[C@](C)(NC(=O)[C@H](CCC(=O)O)NC(=O)CNC(=O)[C@H](CCC(N)=O)NC(=O)[C@H](CC(C)C)NC(=O)[C@H](CC(C)C)NC(C)=O)C(=O)N[C@@H](CC(C)C)C(=O)N[C@@H](CC(C)C)C(=O)N[C@@H](CCCNC(=N)N)C(=O)N2)C(C)C)[C@@H](C)CC)C(=O)N[C@@H](C(C)C)C(=O)N[C@@H](CC(C)C)C(=O)N[C@@H](CCCC)C(=O)N1)C(C)C)[C@@H](C)CC)C(=O)NCC(N)=O` [SP-326] (Ac-LLQGE[S5]LLR[S5]LDQVNIDE[S5]VL[Nle][S5]LVIE[Nle]G-NH2; staple 6-10, 19-23), in assay [1], the IC50 was more than 700 nM. In assay [3], the “Viability 1% FBS AVG” value is reported as “++++ (≥30: ++++)”.

With `CC[C@H](C)[C@H](NC(=O)[C@H](CCCNC(=N)N)NC(=O)[C@H](CC(=O)O)NC(=O)[C@H](CC(C)C)NC(=O)[C@H](C)NC(=O)[C@H](CCSC)NC(=O)[C@]1(C)CCCC=CCCC[C@](C)(NC(=O)[C@H](CCSC)NC(=O)[C@H](CC(C)C)NC(=O)[C@@H](NC(=O)[C@H](C)NC(=O)[C@H](CCC(=O)O)NC(=O)[C@H](CC(=O)O)NC(=O)[C@@H](NC(=O)[C@H](Cc2ccccc2)NC(C)=O)[C@@H](C)CC)C(C)C)C(=O)N[C@@H](CC(C)C)C(=O)N[C@@H](C(C)C)C(=O)N[C@@H]([C@@H](C)CC)C(=O)N1)C(N)=O` [SP-266] (Ac-FIDEAVLM[S5]LVI[S5]MALDRI-NH2; staple 9-13), the half-maximal inhibitory concentration (IC50) in assay [1] is 200 to 400 nM. Further, the “Viability 1% FBS AVG” value in assay [3] is “++++ (≥30: ++++)”.
